The text below walks through data of patent US8741932B2, “Imidazopyridine derivatives” (Piramal Enterprises Limited, priority 2009, dated 2014).

One assay deals with PC3. The assay can be described thus: Cytotoxicity assay (propidium iodide), PC3. Particulars: Homo sapiens, PC-3, 48 h, read-out: IC50 cytotoxicity.
The subject of the next assay is BT 549. Briefly: Cytotoxicity assay (propidium iodide), BT 549. To be noted: Homo sapiens; BT 549 (C6d, breast); 48 hours. In kind it is cell-based.
A further assay relates to TNF-α. The assay can be described thus: Synovial tissue assay, TNF-α. The format is cell-based. To be noted: Homo sapiens; synovial tissue cells from rheumatoid arthritis patients, 16 hours. As for the experimental part: (§1) The assay was designed as in the reference, Lancet, 2(8657), 244-7, Jul.
(§2) Stock Solution: Compounds of the present invention were dissolved in DMSO to obtain a stock solution of 20 mM.
(§3) Synovial tissue was obtained from rheumatoid arthritis patients undergoing knee replacement surgery. The tissue was minced into small pieces and digested in RPMI medium containing 100 U/ml penicillin-G, 100 μg/ml streptomycin, 50 ng/ml amphotericin B (GIBCO; USA), 1.33 mg/ml collagenase Type I (Worthington Biochemical Corporation, New Jersey), 0.5 μg/ml DNAse Type I (Sigma Aldrich; St. Louis, Mo.) and 8.33 U/ml heparin (Biological E. Limited, India) for 3 hours at 37° C., 5% CO2. The digested tissue was filtered through a membrane (mesh size 70 micron; Sigma Aldrich). Subsequently, the cells were washed 3 times and resuspended in complete medium (RPMI supplemented with 5% FBS and 5% human serum-AB+) at a concentration of 1×10^6 cells/ml. All cell washes in this assay were performed using Rosewall Park Memorial Institute (RPMI)-1640 medium (JRH; Australia). For the experiment, 100 μl of cell suspension was added to the wells of a 96-well culture plate. Following cell plating, 100 μl of the culture medium and 1 μl of various concentrations (0.01, 0.03, 0.1, 0.3, 1, 3, 10, 30 and 100 μM) of the compounds of present invention dissolved in DMSO were added to the cells. The final concentration of DMSO was adjusted to 0.5%. For experimental purposes, 1 μl of […] concentrated solution of the compounds of present invention were dissolved in 200 μl cell suspension to achieve a final concentration of 0.01, 0.03, 0.1, 0.3, 1, 3, 10, 30 and 100 μM. The vehicle (0.5% DMSO) was used as control. 10 μM dexamethasone (Sigma Aldrich) or 1 μM 7-hydroxyfluorinide (7HF) were used as standards for the experiments. The plates were incubated for 16 hours at 37° C., 5% CO2. Subsequently, the supernatants were harvested and stored at −70° C. The amounts of TNF-α, IL-6 and interleukin-8 (IL-8) in the supernatants were assayed using OptiEIA ELISA sets, (BD BioSciences Pharmingen). The protocol followed was as per manufacturers instructions. […] The cytotoxicity of test compounds in synovial cells was assessed by MTS assay. Absorbance was measured at 490 nm. Percent cytotoxicity was calculated by the equation: % Cytotoxicity=(A−B)/A×100 where, A is the absorbance of cells treated with DMSO alone and B is the absorbance of cells treated with the test article.

A further assay deals with IL-8. Briefly: Synovial tissue assay, IL-8. The format is cell-based. To be noted: Homo sapiens; synovial tissue cells from rheumatoid arthritis patients, 16 hours. As for the experimental part: as §1, §2, §3
The next assay concerns A549. Briefly: Cytotoxicity assay (propidium iodide), A549. In kind it is cell-based. Particulars: Homo sapiens; A549 (C1a, lung); 48 hours.
Another assay deals with STAT3. The assay can be described thus: STAT3 bioassay (Hela Stat3-luc, luciferase). The format is cell-based. To be noted: Homo sapiens, Oncostatin M induction. As for the experimental part:
Cells were seeded (Hela Stat3-luc, ATCC P/N 30-2002) in a white 96 well plate (Nunc cat.no.136101) at a density of 20,000cells/well in 179 μl volume per well (DMEM from Sigma containing 10% FCS). The plate was incubated for 24 hours at 37° C./5% CO2. The cells (wells in triplicates) were then treated with 1 μl/well of 200× stock of the desired compound concentration prepared in 100% DMSO. Curcumin was used as a standard or positive control, added 10 μg/ml in triplicate. DMSO was used as medium control (1 μl/well added in triplicates). The plate was incubated at 37° C./5% CO2 for 1 hour. 20 μl/well Oncostatin M (Oncostatin M, Human, Recombinant, E. coli, Cat.No. 496260, 10 μg from Calbiochem) was added to treated wells, induction control (in triplicate) (1000 ng/ml stock prepared in serum free medium to get final concentration 100 ng/ml). The plate was then incubated for 7-8 hours at 37° C./5% CO2 for induction. A typical assay would consist of triplicate of medium control, triplicate of induction control, triplicate of positive/standard control and test compounds at desired concentration in triplicates. For termination Luciferase assay protocol was followed where the culture medium was removed from all the wells.
200 μl well of PBS was added to remove traces of medium and compound. The PBS was discarded. 40 μl/well of 1× lysis buffer was added to all the wells. The plate was incubated at RT for 20 minutes with intermittent shaking. 100 μl/well of LAB reagent was added to all the wells in dark. {LAB reagent for 1 plate=8 ml Luciferase assay buffer (LAB)+1 ml Coenzyme A (Sigma cat no. C3019) (2.1 mg/ml stock in LAB)+530 μL of ATP (Sigma cat.no.A2383) (5.85 mg/ml stock in LAB)+1 ml luciferin reagent (Promega cat no.245355) (2 mg/ml stock in LAB, protect from light)}.
The luminescence was immediately read on polar star. The values were expressed as percentage inhibition, in terms of treated values to that STAT3 (induction control). IC50 values were calculated from graphs using these percentages.

Assay [1] concerns IL-6. The assay can be described thus: Human monocyte assay, LPS-stimulated IL-6. In kind it is cell-based. To be noted: Monocyte; human monocytes, 1 μg/ml LPS, 5 hours. An outline of the steps: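 Adherent human PBMC-derived monocytes (2×10^4/well) were cultured 48 h, preincubated 30 min with compound or 0.5% DMSO, then stimulated with 1 μg/ml E. coli LPS for 5 h at 37° C. TNF-α and IL-6 in supernatants were measured by ELISA.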

Another assay deals with A2780. The assay can be described thus: Cytotoxicity assay (propidium iodide), A2780. The format is cell-based. To be noted: Homo sapiens; A2780 (C3a, ovarian); 48 hours.
The test system of the next assay is H460. Briefly: Cytotoxicity assay (propidium iodide), H460. The format is cell-based. To be noted: Homo sapiens, NCI-H460; H460 (C1b, lung); 48 hours.
The test system of the next assay is MDA MB 468. Briefly: Cytotoxicity assay (propidium iodide), MDA MB 468. In kind it is cell-based. To be noted: Homo sapiens; MDA MB 468 (C6b, breast); 48 hours.
Assay [2] deals with IL-6. Briefly: Synovial tissue assay, IL-6. The format is cell-based. To be noted: Homo sapiens; synovial tissue cells from rheumatoid arthritis patients, 16 hours. As for the experimental part:
as §1, §2, §3

Another assay concerns U 373. Briefly: Cytotoxicity assay (propidium iodide), U 373. The format is cell-based. To be noted: Homo sapiens, U373 MG; U 373 (C8a, glioblastoma); 48 hours.
The test system of another assay is HCT116. Briefly: Cytotoxicity assay (propidium iodide), HCT116. In kind it is cell-based. To be noted: Homo sapiens, HCT-116; HCT116 (C4b, colon); 48 hours.
The next assay has as its system U 87 MG. The assay can be described thus: Cytotoxicity assay (propidium iodide), U 87 MG. In kind it is cell-based. Particulars: Homo sapiens; U 87 MG (C8b, glioblastoma); 48 hours.
The target of the next assay is T1, PI3Kα kinase (Homo sapiens, UniProt P42336).
T1 construct: purchased Millipore, USA
Briefly: Kinase assay (PI3Kα). The format is biochemical. Particulars: read-out: IC50 (μM) for PI3K inhibition. The procedure, abridged: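 Recombinant PI3Kα (20 ng) phosphorylated 12.5 μg phosphatidylinositol with 10 μM ATP and 1 μCi ^32γ P […] in 10 mM Hepes pH 7.5, 50 mM MgCl2 for 20 min at 30° C. Lipids were extracted with MeOH/CHCl3, resolved by TLC, and labelled PI quantified by autoradiography densitometry; PI-103 served as standard.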

Another assay has as its target T2, mTOR (Homo sapiens, UniProt P42345).
T2 construct: endogenous in cells; host or cells: A2780 ovarian cell line (ATCC)
The assay can be described thus: mTOR activity assay (cell ELISA, Phospho-AKT Ser 473, A2780 cells). In kind it is cell-based. As for the experimental part:
Seed cells (Ovarian cell line A2780, ATCC) were plated in a 96 well microtitre plate at a density of 50,000 cells/cm^2 in appropriate complete cell culture medium. The cells were allowed to adhere for 18-24 hours. The cells were allowed to starve for 24 hours. […] Then the cells were stimulated with 20% FCS for 30 minutes. A typical assay would consist of a set of unstimulated cells, a set of stimulated cells and a set of cells treated with compounds of present invention and a set of cells treated with the stimulator. The medium was discarded. The cells were fixed with 100 μL of 3.7% formaldehyde for 15 minutes. The formaldehyde was discarded by inverting the plate and tapping it on a thick tissue paper layer to remove traces. The cells were washed and permeabilized with 200 μL PBS+Triton-X 100 solution (hereafter referred to as PBS-Triton, containing 0.1% triton-X 100 in 1×PBS) three times, incubating the cells each time for 5 minutes. 100 μL blocking solution (10% FCS in PBS-Triton) was added and incubated for 1 hour at 25° C. The blocking solution was discarded and cells were incubated with the primary antibody in PBS-Triton at a dilution of 1:500 for 1 hour at RT (25° C.). [The primary antibody is Phospho-AKT (Ser 473); Cell Signaling; Cat. No. 9271]. The primary antibody solution was discarded and the cells were washed 3 times with PBS-Triton solution and incubated with the HRP-conjugated secondary antibody in PBS-Triton at a dilution of 1:500 for 1 hour at RT (25° C.). The cells were washed 3 times with PBS-Triton followed by two washes with PBS (to remove traces of triton-X 100). The OPD (o-phenylene diamine dihydrochloride) substrate was prepared for detection of the signal by dissolving one tablet set (two tablets) of SigmaFast OPD (Sigma, Cat No. P9187) in 20 mL distilled water. It should be protected from light. 100 μL OPD solutions was added to the wells and the plate was incubated in the dark for 3-5 minutes (depending upon the development of the color). The reaction was stopped by adding 50 μL 2 N H2SO4. The absorbance was measured at 490 nm. The values were expressed in the treated samples, in terms of percentage or fold decrease in AKT phosphorylation with respect to the induced sample. PI-103 (Calbiochem, USA) was used as a standard.
Background: In an ELISA, binding on a coated surface is turned into a signal by an enzyme label.

The subject of a further assay is PANC 1. The assay can be described thus: Cytotoxicity assay (propidium iodide), PANC 1. The format is cell-based. To be noted: Homo sapiens; PANC 1 (C5a, pancreatic); 48 hours.
The test system of the next assay is SKOV3. Briefly: Cytotoxicity assay (propidium iodide), SKOV3. In kind it is cell-based. Particulars: Homo sapiens, SK-OV-3; SKOV3 (C3b, ovarian); 48 hours.
A further assay relates to CAPAN1. The assay can be described thus: Cytotoxicity assay (propidium iodide), CAPAN1. In kind it is cell-based. Particulars: Homo sapiens, CAPAN-1; CAPAN1 (C5b, pancreatic); 48 hours.
A further assay deals with OVCAR 3. Briefly: Cytotoxicity assay (propidium iodide), OVCAR 3. The format is cell-based. To be noted: Homo sapiens; OVCAR 3 (C3c, ovarian); 48 hours.

The structures appear in SMILES notation.

T1 sequence (P42336 whole entry): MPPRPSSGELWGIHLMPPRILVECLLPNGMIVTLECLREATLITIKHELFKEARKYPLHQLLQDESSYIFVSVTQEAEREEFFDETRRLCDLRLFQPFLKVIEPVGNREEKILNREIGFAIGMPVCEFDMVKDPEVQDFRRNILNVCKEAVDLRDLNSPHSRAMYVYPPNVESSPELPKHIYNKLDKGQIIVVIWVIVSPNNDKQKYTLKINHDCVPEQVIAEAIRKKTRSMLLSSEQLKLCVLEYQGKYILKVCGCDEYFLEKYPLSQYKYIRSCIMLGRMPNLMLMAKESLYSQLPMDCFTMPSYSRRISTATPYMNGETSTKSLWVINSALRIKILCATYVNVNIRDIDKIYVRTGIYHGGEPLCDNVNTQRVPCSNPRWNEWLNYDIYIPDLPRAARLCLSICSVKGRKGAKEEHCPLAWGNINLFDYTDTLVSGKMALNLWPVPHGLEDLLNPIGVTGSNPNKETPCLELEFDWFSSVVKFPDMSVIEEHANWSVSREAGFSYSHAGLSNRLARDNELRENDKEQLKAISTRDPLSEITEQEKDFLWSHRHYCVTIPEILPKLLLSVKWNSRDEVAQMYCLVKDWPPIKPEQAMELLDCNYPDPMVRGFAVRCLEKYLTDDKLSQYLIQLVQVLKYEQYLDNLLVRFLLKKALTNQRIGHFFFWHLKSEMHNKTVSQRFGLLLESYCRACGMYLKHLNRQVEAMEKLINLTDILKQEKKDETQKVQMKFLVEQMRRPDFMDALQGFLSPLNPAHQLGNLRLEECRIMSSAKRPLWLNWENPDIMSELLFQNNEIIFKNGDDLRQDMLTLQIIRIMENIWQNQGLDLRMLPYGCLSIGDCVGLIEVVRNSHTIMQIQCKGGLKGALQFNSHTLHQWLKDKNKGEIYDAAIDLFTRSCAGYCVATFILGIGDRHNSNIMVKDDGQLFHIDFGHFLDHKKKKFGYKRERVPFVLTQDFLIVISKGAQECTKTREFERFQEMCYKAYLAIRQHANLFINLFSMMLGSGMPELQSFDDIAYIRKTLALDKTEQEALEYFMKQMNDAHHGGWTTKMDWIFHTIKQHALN
T1 sequence (P27986 whole entry partner): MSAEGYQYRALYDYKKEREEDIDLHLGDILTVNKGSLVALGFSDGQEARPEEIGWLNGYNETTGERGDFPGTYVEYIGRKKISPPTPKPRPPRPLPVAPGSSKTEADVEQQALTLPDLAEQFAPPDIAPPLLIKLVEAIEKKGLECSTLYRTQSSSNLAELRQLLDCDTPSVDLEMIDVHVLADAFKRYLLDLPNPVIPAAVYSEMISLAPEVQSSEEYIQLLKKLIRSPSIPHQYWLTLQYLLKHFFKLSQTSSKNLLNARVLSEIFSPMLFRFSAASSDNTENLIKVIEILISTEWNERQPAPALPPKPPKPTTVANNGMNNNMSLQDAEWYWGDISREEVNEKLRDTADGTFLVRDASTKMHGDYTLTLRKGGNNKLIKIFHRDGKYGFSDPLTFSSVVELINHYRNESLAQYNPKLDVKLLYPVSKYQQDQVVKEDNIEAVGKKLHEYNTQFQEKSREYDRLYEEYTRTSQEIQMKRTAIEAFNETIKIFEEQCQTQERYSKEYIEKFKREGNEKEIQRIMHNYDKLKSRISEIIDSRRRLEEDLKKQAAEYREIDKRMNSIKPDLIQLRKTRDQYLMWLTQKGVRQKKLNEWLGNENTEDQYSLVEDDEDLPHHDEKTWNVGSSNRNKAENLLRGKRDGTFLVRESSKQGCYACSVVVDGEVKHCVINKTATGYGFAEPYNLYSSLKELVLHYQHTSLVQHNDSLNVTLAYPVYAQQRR
Method for BT 549: (§4) Cells from cell lines as mentioned in the table given below were seeded at a density of 3000 cells/well in a white opaque 96-well plate. Following incubation at 37° C./5% CO2 for a period of 18-24 hours, the cells were treated with various concentrations (stock solution was prepared in DMSO and subsequent dilutions were made in media as per ATCC guidelines) of the representative compounds of present invention (refer table 3) for a period of 48 hours. At the end of treatment, the spent culture medium was discarded, the cells were washed with 1×PBS and 200 μl of 7 μg/ml propidium iodide was added to each well. The plates were frozen at −70° C. for at least 24 hours. For analysis, the plates were brought to RT, allowed to thaw and were read in PolarStar fluorimeter with the fluorescence setting. The percentage of viable cells in the non treated set of wells was considered to be 100 and the percentage viability following treatment was calculated accordingly. IC50 values were calculated from graphs plotted using these percentages.
Method for CAPAN1: as §4
Method for HCT116: as §4
Method for MDA MB 468: as §4
Method for OVCAR 3: as §4
Method for PANC 1: as §4
Method for PC3: as §4
Method for SKOV3: as §4
Method for U 373: as §4
Method for U 87 MG: as §4

As for `CN(N=Cc1cnc2ccc(-c3cccnc3)cn12)S(=O)(=O)c1ccccc1C#N` [Example 9, 2-Cyano-N-methyl-N′-((6-(pyridine-3-yl)imidazo[1,2-a]pyridine-3-yl)methylene)benzenesulfonohydrazide], the IC50 in the assay with PC3 was 0.01 to 5 µM; in the assay with BT 549, 0.01 to 5 µM; with TNF-α, 0.01 to 0.3 µM; with IL-8, 0.3 to 3 µM; in the assay with A549, 0.01 to 5 µM; with STAT3 it was 5 to 10 µM. In addition, the IC50 in the assay on IL-6 [1] is 0.001 to 5 µM; in the assay on A2780, 0.01 to 5 µM; in the assay on H460, 0.01 to 5 µM; in the assay with MDA MB 468, 0.01 to 5 µM; in the assay on IL-6 [2] it was 0.01 to 0.3 µM.
Regarding `Cc1ccc(S(=O)(=O)N(C)N=Cc2cnc3ccc(-c4cccnc4)cn23)cc1F` [Example 20, 3-Fluoro-N, 4-dimethyl-N′-((6-(pyridine-3-yl)imidazo[1,2-a]pyridine-3-yl)methylene) benzenesulfonohydrazide], the IC50 in the assay with PC3 is above 5 µM; in the assay on U 373, above 5 µM; in the assay on HCT116 it was above 5 µM; with U 87 MG, above 5 µM; on PI3Kα kinase, 0.01 to 0.5 µM; with A549 it was above 5 µM. Also, the IC50 was 0.1 to 5 µM in the assay with STAT3, above 5 µM in the assay with A2780 and above 5 µM in the assay with H460. On mTOR (1 μM, read-out: % Inhibition of mTOR activity at 1 μM), the inhibition at 1 µM was in the range of 30 to 50%.
In the case of `CN(N=Cc1cnc2ccc(-c3cccnc3)cn12)S(=O)(=O)c1ccc(F)c(C#N)c1` [Example 24, 3-Cyano-4-fluoro-N-methyl-N′-((6-(pyridine-3-yl)imidazo[1,2-a]pyridine-3-yl)methylene) benzenesulfonohydrazide], the IC50 with PC3 was 0.01 to 5 µM; in the assay on U 373, 0.01 to 5 µM; with HCT116, above 5 µM; in the assay on U 87 MG, 0.01 to 5 µM; in the assay with A549 it was 0.01 to 5 µM; in the assay on STAT3, above 10 µM. Moreover, the IC50 with A2780 and in the assay with H460 was 0.01 to 5 µM in each case.
In the case of `CN(N=Cc1cnc2ccc(-c3cccnc3)cn12)S(=O)(=O)c1c(F)cc(F)cc1Br` [Example 26, 2-Bromo-4,6-difluoro-N-methyl-N′-((6-(pyridine-3-yl)imidazo[1,2-a]pyridine-3-yl)methylene) benzenesulfonohydrazide], the IC50 was in the range of 0.01 to 5 µM in the assay on PANC 1; 0.01 to 0.5 µM on PI3Kα kinase; 0.01 to 5 µM with SKOV3; 0.01 to 5 µM with A549; 0.1 to 5 µM in the assay with STAT3; 0.01 to 5 µM in the assay with CAPAN1. The IC50 was in the range of 0.001 to 5 µM in the assay on IL-6 [1], 0.01 to 5 µM in the assay on A2780, 0.01 to 5 µM in the assay with H460 and 0.01 to 5 µM in the assay with OVCAR 3. At mTOR (10 μM), this compound gave an inhibition at 10 µM above 50%.

Broadly, the IC50 is the concentration needed to halve the response being measured. One may read the inhibition as how much of the control response was suppressed.
